{"source": "paper PMC6195508", "about": "“Studies on the metabolism and degradation of vancomycin in simulated in vitro and aquatic environment by UHPLC-Triple-TOF-MS/MS” (Scientific Reports, 2018)", "key": {"[1]": {"assay": "Degradation of vancomycin in pure water (pure water system)", "format": "physicochemical", "conditions": "chemical stability in pure (Milli-Q) water; vancomycin 60 mg/L; 37 °C, constant temperature oscillator, sampled every 24 h for 10 days; one sample per time point; UHPLC-Triple-TOF-MS/MS, ESI+", "protocol": "(§1) UHPLC-Triple-TOF-MS/MS analysis was performed on a Shimadzu LC-30A UHPLC system (Kyoto, Japan) consisting of an autosampler (SIL-30AC), a binary pump (LC-30AD) and a column oven (CTO-30A) connected to an AB SCIEX triple TOF 5600 MS/MS system (Redwood, USA) equipped with Duo-Spray ion source. The compound separation was conducted with a Poroshell 120 EC-C18 (2.1 × 150 mm, 2.7 μm, Agilent InfinityLab, USA) chromatographic column maintained at 40 °C. The mobile phases A (0.1% aqueous formic acid) and B (acetonitrile) were used to optimized the gradient elution program, which was operated at follows: 0–1 min, 5% B; 1–9 min, 5–10% B; 9–14 min, 10–45% B; 14–20 min, 45–90% B; 20–25 min, 90% B for washing the column; 25–25.1 min, 90–5% B; 25.1–30 min, 5% B for equilibrating the column. The constant flow rate was 0.4 mL/min, and the injection volume was 5 µL.\n(§2) The full-scan MS spectra and MS/MS spectra data were obtained in positive electrospray ionization (ESI) mode by Analyst TF 1.6 software (AB Sciex, USA). Full scan mode was applied, the parent ions scan ranged from m/z 100 to 2000 Da with a 200 ms accumulation time and the product ions scan range from 100 to 1500 Da with a 70 ms accumulation time. Simultaneously, the calibration delivery system calibrated mass numbers by every five samples to acquire exact mass of ions. The running time of data independent acquisition (DIA) was 20 min. […]"}, "[2]": {"assay": "Degradation of vancomycin in phosphate buffer saline (PBS system)", "format": "physicochemical", "conditions": "chemical stability in phosphate buffer saline; vancomycin 60 mg/L; 37 °C, constant temperature oscillator, sampled every 24 h for 10 days; one sample per time point; UHPLC-Triple-TOF-MS/MS, ESI+", "protocol": "as §1, §2"}, "[3]": {"assay": "Incubation of vancomycin in activated (experimental) and inactivated (control) rat liver microsomes", "format": "in vitro ADME", "conditions": "vancomycin 60 mg/L, 37 °C, UHPLC-Triple-TOF-MS/MS", "protocol": "as §1, §2"}}}
{"smiles": "CN[C@H](CC(C)C)C(=O)N[C@H]1C(=O)N[C@@H](CC(N)=O)C(=O)N[C@H]2C(=O)N[C@H]3C(=O)N[C@H](C(=O)N[C@H](C(=O)O)c4cc(O)cc(O)c4-c4cc3ccc4O)[C@H](O)c3ccc(c(Cl)c3)Oc3cc2cc(c3O[C@@H]2O[C@H](CO)[C@@H](O)[C@H](O)[C@H]2O[C@H]2C[C@](C)(N)[C@H](O)[C@H](C)O2)Oc2ccc(cc2Cl)[C@H]1O", "note": "[vancomycin, Vancomycin]", "values": [{"measurement": "time to 50% loss of vancomycin in water", "setting": "[1]", "value": "over 10 days"}, {"measurement": "time to 50% loss of vancomycin in PBS", "setting": "[2]", "value": "approximately 9 days"}, {"measurement": "half-life at 60 mg/L", "setting": "[3]; male, Sprague-Dawley rat liver microsomes 1 mg/mL protein (activated with 1 mmol/L NADPH, or inactivated), PBS, MgCl2 3.3 mmol/L, constant temperature oscillator, pre-heated 5 min, sampled every 24 h for 10 days, one sample per time point, ESI+, read-out: time to 50% loss of vancomycin in rat liver microsomes (converted)", "value": "~144", "unit": "h"}, {"measurement": "metabolism by liver microsomal cytochrome P450 enzymes (activated versus inactivated microsomes)", "setting": "[3]; similar degradation rate in activated (NADPH 1 mmol/L) and inactivated rat liver microsomes, 1 mg/mL protein", "value": "not metabolized in the liver"}]}
